Measurements taken from ChEMBL document CHEMBL5223094, “Recent advancements in chromone as a privileged scaffold towards the development of small molecules for neurodegenerative therapeutics” (RSC Med Chem, 2022).
Blank lines part the entries; values can stand above or below the compound they belong to.

Tests used:
[1] = target: Cholinesterase (Equus caballus, UniProt P81908); assay: Inhibition of equine serum BuchE using butyrylthiocholine iodide as substrate preincubated for 10 mins followed by substrate addition and measured after 20 mins by DTNB based Ellman's method
Chain of Cholinesterase (P81908 whole entry): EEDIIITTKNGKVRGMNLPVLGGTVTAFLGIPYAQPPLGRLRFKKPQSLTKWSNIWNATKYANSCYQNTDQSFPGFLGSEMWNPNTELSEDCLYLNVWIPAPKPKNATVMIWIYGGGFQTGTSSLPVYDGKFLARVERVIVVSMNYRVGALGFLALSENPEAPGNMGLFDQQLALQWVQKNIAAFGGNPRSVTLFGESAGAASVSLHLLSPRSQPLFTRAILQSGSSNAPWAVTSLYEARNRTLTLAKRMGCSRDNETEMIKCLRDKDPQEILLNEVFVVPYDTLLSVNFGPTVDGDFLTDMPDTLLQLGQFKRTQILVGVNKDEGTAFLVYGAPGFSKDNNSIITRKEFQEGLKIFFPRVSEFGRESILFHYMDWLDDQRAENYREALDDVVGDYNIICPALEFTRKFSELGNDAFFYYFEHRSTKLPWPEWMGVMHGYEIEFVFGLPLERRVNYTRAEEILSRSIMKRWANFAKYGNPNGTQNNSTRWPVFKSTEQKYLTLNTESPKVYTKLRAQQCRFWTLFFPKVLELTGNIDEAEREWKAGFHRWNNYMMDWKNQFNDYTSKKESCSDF

[2] = target: T1, Amine oxidase [flavin-containing] B (Homo sapiens, UniProt P27338); assay: Inhibition of human MAO-B using kynuramine as substrate preincubated for 5 mins followed by substrate addition and measured after 30 mins by spectroscopic analysis
T1 sequence (P27338 whole entry): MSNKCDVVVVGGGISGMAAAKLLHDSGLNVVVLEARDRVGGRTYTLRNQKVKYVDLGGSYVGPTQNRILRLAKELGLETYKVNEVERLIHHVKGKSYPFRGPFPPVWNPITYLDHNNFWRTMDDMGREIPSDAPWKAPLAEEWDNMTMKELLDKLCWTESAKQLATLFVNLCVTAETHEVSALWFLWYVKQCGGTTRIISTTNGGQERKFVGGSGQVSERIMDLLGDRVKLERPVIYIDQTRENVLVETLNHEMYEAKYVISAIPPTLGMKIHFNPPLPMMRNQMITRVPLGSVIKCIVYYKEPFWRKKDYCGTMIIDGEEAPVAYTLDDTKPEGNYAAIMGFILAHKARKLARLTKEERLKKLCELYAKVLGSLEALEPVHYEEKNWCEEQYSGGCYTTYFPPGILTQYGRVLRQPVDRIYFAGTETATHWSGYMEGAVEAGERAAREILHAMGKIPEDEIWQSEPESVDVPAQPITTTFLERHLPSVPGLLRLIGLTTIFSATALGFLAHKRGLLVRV

[3] = target: T2, Acetylcholinesterase (Homo sapiens, UniProt P22303); assay: Inhibition of human AchE expressed in human HEK293 cells using acetylthiocholine as substrate preincubated for 10 mins followed by substrate addition and measured after 5 to 8 mins by DTNB based Ellman's spectrophotometric method; assay type: cell-based
T2 sequence (P22303 whole entry): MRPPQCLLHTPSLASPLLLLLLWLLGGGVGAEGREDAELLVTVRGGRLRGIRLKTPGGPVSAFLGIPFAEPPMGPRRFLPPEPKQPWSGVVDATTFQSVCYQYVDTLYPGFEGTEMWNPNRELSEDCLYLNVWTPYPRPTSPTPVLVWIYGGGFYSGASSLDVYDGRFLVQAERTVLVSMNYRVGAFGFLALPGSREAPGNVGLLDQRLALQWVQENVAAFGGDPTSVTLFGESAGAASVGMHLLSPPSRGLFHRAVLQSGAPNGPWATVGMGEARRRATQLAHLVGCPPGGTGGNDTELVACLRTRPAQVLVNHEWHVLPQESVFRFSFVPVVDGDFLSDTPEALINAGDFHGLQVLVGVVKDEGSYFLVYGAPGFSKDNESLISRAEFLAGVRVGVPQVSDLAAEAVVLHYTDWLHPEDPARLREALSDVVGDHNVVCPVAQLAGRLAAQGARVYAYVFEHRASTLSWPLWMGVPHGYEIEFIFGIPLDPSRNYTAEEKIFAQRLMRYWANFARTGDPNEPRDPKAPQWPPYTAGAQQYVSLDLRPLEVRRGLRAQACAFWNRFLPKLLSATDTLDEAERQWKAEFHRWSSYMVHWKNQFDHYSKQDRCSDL

[4] = Antioxidant activity assessed as trolox equivalent of ORAC radical scavenging activity incubated for 15 mins by ORAC-fluorescein assay; assay type: functional
[5] = target: T3, Amine oxidase [flavin-containing] A (Homo sapiens, UniProt P21397); assay: Inhibition of human MAO-A using kynuramine as substrate preincubated for 5 mins followed by substrate addition and measured after 30 mins by spectroscopic analysis
T3 sequence (P21397 whole entry): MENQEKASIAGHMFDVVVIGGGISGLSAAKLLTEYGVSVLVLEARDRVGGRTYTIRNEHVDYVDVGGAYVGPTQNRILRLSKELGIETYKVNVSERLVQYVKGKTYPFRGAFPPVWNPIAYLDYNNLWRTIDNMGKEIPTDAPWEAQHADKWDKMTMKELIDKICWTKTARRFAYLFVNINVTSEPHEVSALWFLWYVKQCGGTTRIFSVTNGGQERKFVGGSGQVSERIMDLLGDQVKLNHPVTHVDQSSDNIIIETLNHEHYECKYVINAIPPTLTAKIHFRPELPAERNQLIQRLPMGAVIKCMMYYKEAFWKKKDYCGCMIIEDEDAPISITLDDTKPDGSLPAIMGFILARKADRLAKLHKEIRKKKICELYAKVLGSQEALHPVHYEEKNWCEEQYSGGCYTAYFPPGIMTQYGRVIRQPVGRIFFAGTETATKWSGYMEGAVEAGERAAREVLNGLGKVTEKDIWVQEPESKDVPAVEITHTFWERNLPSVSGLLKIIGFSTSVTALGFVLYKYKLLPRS

[6] = target: T1, Amine oxidase [flavin-containing] B; assay: Inhibition of human MAO-B assessed as recovery of enzyme activity by dialysis method; parameters: scale not given: the % may be the effect or the level left
[7] = target: T1, Amine oxidase [flavin-containing] B; assay: Inhibition of human MAO-B using tyramine as substrate preincubated for 10 mins followed by substrate addition and measured after 30 mins by fluorometric method
[8] = target: T3, Amine oxidase [flavin-containing] A; assay: Inhibition of human MAO-A using tyramine as substrate preincubated for 10 mins followed by substrate addition and measured after 30 mins by fluorometric method
[9] = target: T2, Acetylcholinesterase; assay: Inhibition of AchE (unknown origin) using acetylthiocholine iodide as substrate preincubated for 15 mins followed by substrate addition and measured upto 4 mins by Ellman's spectrophotometric method
[10] = target: T1, Amine oxidase [flavin-containing] B; assay: Inhibition of recombinant human MAO-B using tyramine as substrate preincubated for 30 mins followed by substrate addition and measured after 30 mins by amplex red reagent based fluorometric method
[11] = target: T3, Amine oxidase [flavin-containing] A; assay: Inhibition of recombinant human MAO-A using tyramine as substrate preincubated for 30 mins followed by substrate addition and measured after 30 mins by amplex red reagent based fluorometric method
[12] = target: Acetylcholinesterase (Electrophorus electricus, UniProt O42275); assay: Inhibition of electric eel AChE using acetylthiocholine iodide as substrate preincubated for 5 mins followed by substrate addition and measured upto 7.5 mins by Ellman's method
Chain of Acetylcholinesterase (Electrophorus electricus, UniProt O42275) (O42275 whole entry): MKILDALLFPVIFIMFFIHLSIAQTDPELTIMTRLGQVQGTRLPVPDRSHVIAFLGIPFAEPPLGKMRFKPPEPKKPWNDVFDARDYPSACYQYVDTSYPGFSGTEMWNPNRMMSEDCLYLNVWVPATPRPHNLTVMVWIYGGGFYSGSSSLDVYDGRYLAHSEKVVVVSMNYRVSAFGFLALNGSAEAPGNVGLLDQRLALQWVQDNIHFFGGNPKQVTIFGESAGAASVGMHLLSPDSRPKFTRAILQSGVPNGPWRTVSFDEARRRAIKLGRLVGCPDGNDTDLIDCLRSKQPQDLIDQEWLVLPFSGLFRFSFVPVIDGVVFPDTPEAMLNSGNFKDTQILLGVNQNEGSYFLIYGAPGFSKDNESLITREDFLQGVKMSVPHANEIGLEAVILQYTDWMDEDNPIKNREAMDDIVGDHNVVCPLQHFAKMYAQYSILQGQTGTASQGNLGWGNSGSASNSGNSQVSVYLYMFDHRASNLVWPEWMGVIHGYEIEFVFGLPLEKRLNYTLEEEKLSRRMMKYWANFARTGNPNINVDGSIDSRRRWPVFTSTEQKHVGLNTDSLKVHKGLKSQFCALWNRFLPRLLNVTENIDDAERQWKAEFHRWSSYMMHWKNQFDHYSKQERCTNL

[13] = target: Amyloid-beta precursor protein (Homo sapiens) (UniProt P05067); assay: Inhibition of Amyloid beta (1 to 42) (unknown origin) self aggregation and at 20 uM and measured upto 24 hrs by ThT-based fluorimetric assay
Chain of Amyloid-beta precursor protein (Homo sapiens) (P05067 whole entry): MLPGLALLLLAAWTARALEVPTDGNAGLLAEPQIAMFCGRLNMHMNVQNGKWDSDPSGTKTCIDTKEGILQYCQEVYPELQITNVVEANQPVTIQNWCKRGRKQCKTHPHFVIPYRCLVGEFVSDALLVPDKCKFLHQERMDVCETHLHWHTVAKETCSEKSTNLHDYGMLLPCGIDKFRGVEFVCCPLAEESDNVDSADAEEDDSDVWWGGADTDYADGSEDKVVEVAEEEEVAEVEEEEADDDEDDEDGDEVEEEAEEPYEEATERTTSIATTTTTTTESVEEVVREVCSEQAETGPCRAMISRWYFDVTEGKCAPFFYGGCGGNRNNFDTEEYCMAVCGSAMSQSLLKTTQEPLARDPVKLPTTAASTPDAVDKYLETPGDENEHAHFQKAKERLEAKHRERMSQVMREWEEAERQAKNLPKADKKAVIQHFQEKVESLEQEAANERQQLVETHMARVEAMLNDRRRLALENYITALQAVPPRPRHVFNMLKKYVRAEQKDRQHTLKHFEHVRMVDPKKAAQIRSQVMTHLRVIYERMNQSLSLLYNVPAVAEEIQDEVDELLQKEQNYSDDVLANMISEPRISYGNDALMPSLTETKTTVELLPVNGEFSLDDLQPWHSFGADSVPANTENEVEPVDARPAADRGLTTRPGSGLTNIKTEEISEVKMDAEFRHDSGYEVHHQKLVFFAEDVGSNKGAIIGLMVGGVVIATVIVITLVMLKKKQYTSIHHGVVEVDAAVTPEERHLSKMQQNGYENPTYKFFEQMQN

[14] = target: T2, Acetylcholinesterase; assay: Inhibition of recombinant human AchE using acetylthiocholine iodide as substrate and measured upto 2 mins by Ellman's method

Structure (SMILES): COc1ccc2[nH]cc(CCNC(=O)CN(CCCCC3CCN(Cc4ccccc4)CC3)C(=O)c3cc(=O)c4ccccc4o3)c2c1
IC50 [1]: 12 nM | IC50 [2]: 21 µM | IC50 [3]: 2000 nM | Activity [4]: 3.04 equiv | IC50 [5]: 3 µM

Activity [6]: 70% | IC50 [7]: 100 nM | IC50 [8]: 4 µM
Structure (SMILES): Cc1ccc(NC(=O)c2c(OCc3ccccc3)ccc3c(=O)c(C)c(C)oc23)cc1

Structure (SMILES): CCOP(=O)(OCC)C(NCCc1ccc(OC)cc1)c1coc2ccccc2c1=O (centres undefined)
IC50 [9]: 100 nM

IC50 [10]: 10 µM | IC50 [11]: 19 µM
Structure (SMILES): O=C(OCc1ccc(Cl)cc1)c1coc2ccccc2c1=O

Structure (SMILES): Cc1ccc(C#CCOc2ccccc2/C=C/c2cc(=O)c3ccccc3o2)cc1
IC50 [12]: 3 µM | inhibition [13]: 66%

Structure (SMILES): COc1ccc2c(=O)cc(C(=O)NCCN3CCCCC3)oc2c1
IC50 [14]: 90 nM
